“And” between values parts separate entries of the source, which are not always exact repeats. Equal values may be shown once. “Also recorded” adds a separate entry of the source. Read-outs that look alike come from different tables or passages of the source.
Assays:
[1] = Metabolic stability in human liver microsomes
Description: The compounds were also assessed in human liver microsomal stability assays, plasma protein binding, aqueous solubility (pH 7.4), and evaluation of permeability using the Caco-2 assay.
Analysis in silico of the drug-like properties of the compounds generated in this study is used to drive compound selection. Physicochemical properties (log S, log P, etc.) of all of the new scaffolds are evaluated and compared to PF-74 using StarDrop (Optibrium, UK). The likelihood of metabolism of our new scaffolds, as compared to PF-74, by the common CYP P450 isoforms, was assessed using StarDrop and its P450 module (www dot optibrium dot com/stardrop/stardrop-p450-models dot php). StarDrop's P450 models use quantum mechanical calculations of the activation energy for hydrogen abstraction or direct oxidation, based on the semi-empirical AMi method. These are combined with ligand-based models of the steric and orientation effects of the binding pockets of each P450 isoform on the accessibility of each potential site of metabolism. This total analysis results in predictions of the regioselectivity of metabolism and the lability of each site, a measure of the efficiency of product formation—both important factors governing the rate of metabolism. Compounds of Formula I identified herein that meet the criteria for potency and cytotoxicity are evaluated in in vitro ADME assays (FIG. 8). Specifically, we use microsomal stability and plasma protein binding assessment as reliable indicators of clearance and half-life in vivo. Aqueous solubility is evaluated because low solubility or stability in assay media is detrimental to the development of sound structure-activity-relationships. Low solubility can also hamper our ability to formulate analogs for future in vivo studies. A Caco-2 assay is used to assess cell permeability issues.
T1/2 is the liver microsomal half-life, CLint, CLapp, and CLh are pharmacokinetic clearance parameters.

HIV-1 = test: microbe, parasite or virus in culture
Description: The potency of compounds of Formula I was evaluated via single round and multicycle HIV-1 replication assays. The single round assay is used as the first level of potency testing. […] The multicycle HIV-1 replication assay uses primary isolates and primary human peripheral blood mononuclear cells (PBMCs). Toxicity is evaluated simultaneously with the cells utilized in each assay to allow determination of the therapeutic index (TI=CC50/IC50) of each compound. HIV-1 replication assays are performed in primary PBMCs such as described in Kortager, et al., 2012, J Virol. 86(16):8472-8481, Zentner, et al., 2013, ChemMedChem. 8(3):426-432 and Zentner, et al., 2013, Bioorg Med Chem Lett. 2013; 23(4): 1132-1135.

HIV-1 CA hexamer protein = test: Direct binding to hexameric HIV-1 CA via SPR; details: sensor chip immobilized CA hexamer
Source text: A direct binding assay was established using SPR (surface plasmon resonance) (FIGS. 5-7). This assay allows for the confirmation that maintained target specificity is maintained, and the analysis of the kinetic signatures of newly synthesized compounds allows for prioritization of compounds for antiviral testing. […] Therefore, compounds with slower off-rates are prioritized for antiviral testing, as this characteristic should translate to increased potency. Additionally, the interaction of the next-generation compounds with CA proteins from clades A1, A2, B, C, and D (FIG. 11) was quantified. Hexameric versions of these constructs were developed, given their differential assembly properties, compared to the NL4-3 variant. This can be accomplished by modelling of the CA variants and mutation of residues (either A14C/E45C or A42C/T54C) between the N-terminal domains of adjacent subunits. Second, the cross-linked hexamers were prevented from polymerizing further into hyperstable capsid-like structures by mutations (W184A and M185A). The application of this to make hexameric capsomrs was first outlined in Pomillos et al. 2010. J. Mol. Biol. 401(5):985-95. The SPR analysis indicates a compound's potential performance in the therapeutic spectrum testing against other clades in the following sub-aim and provide a facile way in which to rank order compounds for antiviral testing.

[2] = test system: cells utilized in each assay; test: Toxicity (CC50) evaluated with the cells utilized in the infection assay; type: cell-based; details: Table 2
Description: (§1) As used herein, the term “CC50” is the half-maximal cytotoxic concentration of a particular compound or agent.
(§2) The potency of compounds of Formula I was evaluated via single round and multicycle HIV-1 replication assays. The single round assay is used as the first level of potency testing. Compounds that display antiviral activity equal to or greater than PF-74 in the primary assay are quantified in the multicycle HIV-1 assays. The multicycle HIV-1 replication assay uses primary isolates and primary human peripheral blood mononuclear cells (PBMCs). Toxicity is evaluated simultaneously with the cells utilized in each assay to allow determination of the therapeutic index (TI=CC50/IC50) of each compound. HIV-1 replication assays are performed in primary PBMCs such as described in Kortager, et al., 2012, J Virol. 86(16):8472-8481, Zentner, et al., 2013, ChemMedChem. 8(3):426-432 and Zentner, et al., 2013, Bioorg Med Chem Lett. 2013; 23(4): 1132-1135.

[3] = as above; type: cell-based; details: Table 2
Description: as §1, §2

[4] = racemates and (R)/(S) enantiomers, Table 4
[5] = inhibition of HIV-1 in the early stages of replication, Table 2
[6] = human liver microsomal stability assay, compared to PF-74
[7] = liver microsomal half-life, Table 3
[8] = metabolic stability of racemates and (R)/(S) enantiomers, Table 5
[9] = human, liver microsomes, T1/2, liver microsomal half-life, Table 3
[10] = human, liver microsomes, T1/2, metabolic stability of racemates and (R)/(S) enantiomers, Table 5
[11] = human liver microsomes, Table 1

Cc1[nH]c2ccccc2c1CC(=O)N[C@H](Cc1ccccc1)C(=O)N(C)c1ccccc1 [(R)-PF-74, reference compound]
T1/2 ([1]; human, microsomes): 0.6 min

Cc1[nH]c2ccccc2c1CC(=O)N[C@@H](Cc1ccccc1)C(=O)N(C)c1ccccc1 [(S)-PF-74, reference compound]
IC50 (HIV-1; [4]): 80 ± 5.7 nM
Therapeutic index (CC50/IC50) (HIV-1; [4]): 3075
T1/2 ([1]; human, microsomes): 0.5 min

CC(C)c1nc2c(n1CC(=O)NC(Cc1ccccc1)C(=O)N(C)c1ccccc1)CCCC2 (centres unmarked) [CX03]
reduction in potency relative to PF-74 (HIV-1; compared to PF-74): 10 fold
improvement in metabolic stability over PF-74 ([1]; human, microsomes): 4 fold
binding to HIV-1 CA hexamer (in words) (HIV-1 CA hexamer protein): relatively low-affinity

CN(C(=O)C(Cc1ccccc1)NC(=O)Cc1n[nH]c2c(N)cccc12)c1ccccc1 (centres unmarked) [Compound C4]
increase in the therapeutic index (CC50/IC50) over PF-74 (HIV-1; compared to PF-74): over 7 fold
IC50 (HIV-1; [5]): 51.5 ± 18.4 nM
IC50 (HIV-1; [4]): 51.5 ± 18.4 nM
Therapeutic index (CC50/IC50) (HIV-1; [4]): 5515
improvement in metabolic stability over PF-74 [1, 6]: 34 fold and 30 fold
T1/2 [1, 7]: 20 min
CLapp ([1]; liver microsomes, Table 3): 67.126 mL/min/kg
CLh ([1]; liver microsomes, Table 3): 15.409 mL/min/kg
CLint ([1]; liver microsomes, Table 3): 69.6 µL/min/mg
Eh ([1]; liver microsomes, Table 3): 77
k ([1]; liver microsomes, Table 3): 0.03481
T1/2 [1, 8]: 20 min
binding to HIV-1 CA hexamer (in words) (HIV-1 CA hexamer protein): interacts with the CA hexamer similarly to PF-74; also recorded: higher affinity
CC50 [2]: 284000 ± 200 nM

Cc1[nH]c2ccccc2c1CC(=O)NC(Cc1ccccc1)C(=O)N(C)c1ccc2[nH]ncc2c1 (centres unmarked) [Compound C11]
IC50 (HIV-1; Human immunodeficiency virus 1): 173 ± 58 nM
Therapeutic index (CC50/IC50) (HIV-1; [4]): 2115
improvement in metabolic stability over PF-74 [1, 6]: 34 fold
microsomal CLint ([1]; human, liver microsomes): 78.7 µL/min/mg
half-life [1, 9]: 18 min
half-life [1, 10]: 17.6 min
CLapp ([1]; liver microsomes, Table 3): 75.866 mL/min/kg
CLh ([1]; liver microsomes, Table 3): 15.828 mL/min/kg
Eh ([1]; liver microsomes, Table 3): 79.1
k ([1]; liver microsomes, Table 3): 0.03934
CC50 [3]: 366000 ± 29000 nM

CN(C(=O)C(Cc1ccccc1)NC(=O)Cc1n[nH]c2c(N)cccc12)c1ccc2[nH]ncc2c1 (centres unmarked) [Compound C12]
IC50 (HIV-1; Human immunodeficiency virus 1): 302 ± 167 nM
Therapeutic index (CC50/IC50) (HIV-1; [4]): 606
improvement in metabolic stability over PF-74 [1, 6]: 118 fold
microsomal CLint ([1]; human, liver microsomes): 19.5 µL/min/mg
half-life [1, 9]: 71 min
half-life [1, 10]: 71 min
CLapp ([1]; liver microsomes, Table 3): 18.819 mL/min/kg
CLh ([1]; liver microsomes, Table 3): 9.696 mL/min/kg
Eh ([1]; liver microsomes, Table 3): 48.5
k ([1]; liver microsomes, Table 3): 0.00976
CC50 [3]: 183000 ± 15000 nM

Cc1[nH]c2ccc(S(=O)(=O)F)cc2c1CC(=O)NC(Cc1ccccc1)C(=O)N(C)c1ccc2cn[nH]c2c1 (centres unmarked) [Compound C13]
IC50 (HIV-1; Human immunodeficiency virus 1, 24 h, read-out: 24 h post-infection IC50): 23.1 ± 4.29 nM
IC50 (HIV-1; Human immunodeficiency virus 1, 48 h, read-out: 48 h post-infection IC50): 23.9 ± 3.24 nM
IC50 (HIV-1; Human immunodeficiency virus 1, 72 h, read-out: 72 h post-infection IC50): 29.1 ± 5.67 nM
binding to HIV-1 CA hexamer (in words) (HIV-1 CA hexamer protein): even more potent binding than (S)-C11

Cc1[nH]c2ccccc2c1CC(=O)N[C@@H](Cc1ccccc1)C(=O)N(C)c1ccccc1 [PF-74, reference compound]
IC50 (HIV-1; [5]): 95.1 ± 31.7 nM
IC50 (HIV-1; [4]): 95.1 ± 31.7 nM
Therapeutic index (CC50/IC50) (HIV-1; [4]): 768
CLapp [1, 11]: 2249.427 mL/min/kg
CLint [1, 11]: 2332.7 µL/min/mg
Clh [1, 11]: 19.824 mL/min/kg
Eh [1, 11]: 99.12%
T1/2 [1, 11]: 0.59 min
k [1, 11]: 1.166
metabolic lability (in words) [1, 11]: highly metabolically labile
T1/2 [1, 7]: 0.6 min
CLapp ([1]; liver microsomes, Table 3): 2249.427 mL/min/kg
CLh ([1]; liver microsomes, Table 3): 19.824 mL/min/kg
CLint ([1]; liver microsomes, Table 3): 2332.7 µL/min/mg
Eh ([1]; liver microsomes, Table 3): 99.12
k ([1]; liver microsomes, Table 3): 1.166
T1/2 [1, 8]: 0.6 min
binding to HIV-1 CA hexamer (in words) (HIV-1 CA hexamer protein): higher affinity
CC50 [2]: 73000 ± 15000 nM

C[C@]12CC[C@H]3[C@@H](CCC4=CC(=O)CC[C@@]43C)[C@@H]1CC[C@@H]2O [Testosterone, reference compound]
CLapp [1, 11]: 74.292 mL/min/kg
Clh [1, 11]: 15.758 mL/min/kg
CLapp ([1]; liver microsomes, Table 3): 74.292 mL/min/kg
CLh ([1]; liver microsomes, Table 3): 15.758 mL/min/kg

CC(=O)CC(c1ccccc1)c1c(O)c2ccccc2oc1=O (centres unmarked) [Warfarin, reference compound]
k ([1]; human): −0.00509

Reference: patent US20210115061A1, “Small-Molecule HIV-1 Capsid Protein Inhibitors and Methods Using Same” (DREXEL UNIVERSITY, priority 2018, published 2021)
